Here are results for two compounds from publication PMC4287973, “Tumor cell-specific inhibition of MYC function using small molecule inhibitors of the HUWE1 ubiquitin ligase” (EMBO Molecular Medicine, 2014).

One series addresses T1, UBE3A (Homo sapiens, UniProt Q05086).
T1 construct: HECT-domains of multiple ligases auto-ubiquitinate in in vitro assays containing both UBA1 and UbcH5b
T1 sequence (Q05086 518-875 limits assumed): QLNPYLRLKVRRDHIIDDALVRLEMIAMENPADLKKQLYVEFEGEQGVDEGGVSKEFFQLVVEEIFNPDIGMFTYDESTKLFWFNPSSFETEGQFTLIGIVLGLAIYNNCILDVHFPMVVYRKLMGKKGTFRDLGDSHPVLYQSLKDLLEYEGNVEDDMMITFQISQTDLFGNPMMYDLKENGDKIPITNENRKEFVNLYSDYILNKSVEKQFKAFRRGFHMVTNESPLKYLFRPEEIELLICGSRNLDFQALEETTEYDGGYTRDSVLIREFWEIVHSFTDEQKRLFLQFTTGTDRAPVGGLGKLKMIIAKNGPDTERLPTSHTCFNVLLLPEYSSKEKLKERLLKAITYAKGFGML
In words: in vitro HECT-domain auto-ubiquitination assay, UBE3A. The class given is biochemical.

The next series concerns the target T2, SMURF2 (Homo sapiens, UniProt Q9HAU4).
T2 construct: HECT-domains of multiple ligases auto-ubiquitinate in in vitro assays containing both UBA1 and UbcH5b
In words: in vitro HECT-domain auto-ubiquitination assay, SMURF2. The class given is biochemical.

A further series concerns the target T3, ITCH (Homo sapiens, UniProt Q96J02).
T3 construct: HECT-domains of multiple ligases auto-ubiquitinate in in vitro assays containing both UBA1 and UbcH5b
Put plainly: in vitro HECT-domain auto-ubiquitination assay, ITCH. The class given is biochemical.

Series [1] deals with crypt cultures of normal intestinal epithelial cells. Put plainly: Survival and viability of intestinal crypt (organoid) cultures. The following applies: for fraction of individual crypts that died: long-term incubation of primary crypt cultures.
Protocol: Murine intestinal crypt cultures were established from wild-type mice of a mixed background (50% C57Bl6J, 50% S129) as previously described (Sato et al, [2009]). Briefly, intestines were isolated and flushed with PBS. Villi were removed by scraping and remaining tissue cut and washed with PBS. Crypt extraction was carried out in PBS + 2 mM EDTA for 30 min at 4 °C. Isolated crypts were washed with PBS and plated in growth factor reduced Matrigel (BD Biosciences). Crypts were grown in Advanced DMEM (Invitrogen) supplemented with N2 (Invitrogen), B27 (Invitrogen), EGF (Peprotech), Noggin (Peprotech), and R-spondin (Peprotech). Media were replaced every 2 days and crypts passaged weekly. […] Organoid survival was scored at this point based on their microscopic appearance. Cell viability was also determined using a CellTiter-Blue Cell Viability Assay (Promega) according to the manufacturer's instructions.
end of the experiment, the number of life crypts was counted by visual inspection.
The test system of series [2] is MYC target gene sets in Ls174T cells. In words: Microarray gene expression and GSEA in Ls174T cells. Format: cell-based, human. The following applies: for number of genes downregulated (microarray) / number of genes upregulated (microarray): Ls174T, 24 h, cut-off fold change 2, P < 0.01. Here is the method: Finally, shRNA-mediated depletion of p53 (Supplementary Fig S8, upper panel) had no effect on regulation of MYC target genes by either compound (Supplementary Fig S8, lower panel). Collectively, the data establish that these compounds block MYC-dependent transcriptional activation via inhibition of HUWE1 in colon cancer cells.
Control or HUWE1-depleted Ls174T cells were treated with HUWE1 inhibitors or DMSO as control for 24 h. Expression of different MYC-induced target genes was analyzed by RQ–PCR. Error bars show SD of triplicate technical assays from one representative experiment (n = 5). • Time-dependent expression of the differentiation marker MUC2 upon HUWE1 inhibition. Ls174T cells were treated with HUWE1 inhibitors for the indicated times. Error bars show SD of triplicate technical assays from one representative experiment (n = 3). • Gene set enrichment analysis (GSEA) of gene expression changes upon HUWE1 inhibition. Ls174T cells were treated for 24 h with either HUWE1 inhibitor or DMSO as control. RNA was isolated and subjected to a microarray and gene set enrichment analysis. […] P-values were calculated using a test for hypergeometric distribution. • Heat map comparing gene expression after HUWE1 depletion to treatment with HUWE1 inhibitors. The left panel summarizes expression of all genes (n = 10,452) ordered according to their expression after HUWE1 knockdown. […] MYC binding data were taken from HeLa cells. […] The upper panels display examples of MYC-activated gene sets and their response to inhibition of HUWE1.
Microarray analyses were performed on a 44K Whole Human Genome Array (G4845A 026652, Agilent), and raw data were generated with the Feature Extraction software v10.1.1.1 (Agilent).
The P-value was calculated using a one-sample two-tailed Student's t-test with μ = 0. Gene set enrichment analysis (GSEA) was performed using default settings and the C2 gene sets from the MSigDB (www.broadinstitute.org/gsea/msigdb). To compare two GSEA, the normalized enrichment scores (NES) for all repressed gene sets were plotted and gene sets containing > 25% ribosomal protein genes were highlighted. Data are presented as means with standard deviation unless defined differently in the figure legends. P-values were calculated using Student's t-test.

The next series has as its target T4, HERC1 (Homo sapiens, UniProt Q15751).
T4 construct: HECT-domains of multiple ligases auto-ubiquitinate in in vitro assays containing both UBA1 and UbcH5b
T4 sequence (Q15751 4501-4848 limits assumed): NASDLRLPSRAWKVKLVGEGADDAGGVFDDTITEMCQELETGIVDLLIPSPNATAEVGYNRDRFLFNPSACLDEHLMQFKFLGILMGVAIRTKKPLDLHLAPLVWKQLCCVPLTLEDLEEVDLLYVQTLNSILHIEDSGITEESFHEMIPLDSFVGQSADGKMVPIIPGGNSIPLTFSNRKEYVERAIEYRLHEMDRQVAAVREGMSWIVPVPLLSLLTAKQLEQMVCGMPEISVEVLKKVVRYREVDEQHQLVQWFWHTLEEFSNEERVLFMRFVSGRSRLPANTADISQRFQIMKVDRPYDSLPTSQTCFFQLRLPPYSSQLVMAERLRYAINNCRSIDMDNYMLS
Put plainly: in vitro HECT-domain auto-ubiquitination assay, HERC1. The class given is biochemical.

A further series addresses T5, SMURF1 (Homo sapiens, UniProt Q9HCE7).
T5 construct: HECT-domains of multiple ligases auto-ubiquitinate in in vitro assays containing both UBA1 and UbcH5b
In words: in vitro HECT-domain auto-ubiquitination assay, SMURF1. The class given is biochemical.

A value given as a limit tells only on which side of the number the result lay.

T3 sequence (Q96J02 569-903 limits assumed, species assumed): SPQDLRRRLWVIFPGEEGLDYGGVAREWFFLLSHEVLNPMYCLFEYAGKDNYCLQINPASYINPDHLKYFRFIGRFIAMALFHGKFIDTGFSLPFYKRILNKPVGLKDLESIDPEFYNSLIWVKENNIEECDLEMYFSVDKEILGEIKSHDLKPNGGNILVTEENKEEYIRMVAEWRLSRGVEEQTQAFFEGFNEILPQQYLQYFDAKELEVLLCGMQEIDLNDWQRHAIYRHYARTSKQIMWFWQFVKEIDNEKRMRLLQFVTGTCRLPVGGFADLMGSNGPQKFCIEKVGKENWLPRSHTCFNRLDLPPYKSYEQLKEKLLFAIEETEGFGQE
T2 sequence (Q9HAU4 414-748 limits assumed, species assumed): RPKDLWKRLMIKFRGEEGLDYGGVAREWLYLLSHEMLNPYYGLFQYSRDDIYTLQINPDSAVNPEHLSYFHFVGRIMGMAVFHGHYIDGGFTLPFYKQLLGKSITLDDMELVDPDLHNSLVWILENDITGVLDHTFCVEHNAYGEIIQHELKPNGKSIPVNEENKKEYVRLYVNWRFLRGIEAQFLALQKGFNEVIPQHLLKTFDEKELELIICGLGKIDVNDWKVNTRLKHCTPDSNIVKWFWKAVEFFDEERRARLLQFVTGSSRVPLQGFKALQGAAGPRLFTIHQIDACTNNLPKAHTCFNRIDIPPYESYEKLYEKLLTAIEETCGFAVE
T5 sequence (Q9HCE7 420-757 limits assumed, species assumed): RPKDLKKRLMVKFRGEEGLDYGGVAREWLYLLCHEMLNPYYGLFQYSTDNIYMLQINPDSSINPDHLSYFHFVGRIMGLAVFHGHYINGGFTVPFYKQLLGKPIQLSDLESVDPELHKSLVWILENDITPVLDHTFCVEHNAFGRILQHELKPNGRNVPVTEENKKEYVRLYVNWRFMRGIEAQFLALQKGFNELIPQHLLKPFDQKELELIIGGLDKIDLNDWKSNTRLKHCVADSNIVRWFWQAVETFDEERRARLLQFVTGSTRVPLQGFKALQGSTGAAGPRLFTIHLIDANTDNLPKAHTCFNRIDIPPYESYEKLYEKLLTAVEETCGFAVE

With `Cc1c(C(=O)Nc2ccc(CN)cc2)ncnc1N1CCC(C#N)(c2ccccc2)CC1` [BI8622], the IC50 on UBE3A, at SMURF2, at ITCH, against HERC1 and against SMURF1 was greater than 50 µM each time. The “Ki67 staining of intestinal crypts” value in series [1] (10 µM, 24 hr) is “Ki67-positive”. Also, in series [1] (10 µM, 24 hr), the “MTT assay corrected for number of live crypts” value was “no reduction”. For the same compound, the “number of live crypts, % of all crypts” value in series [1] (10 µM, 24 hr, visual inspection) turned out to be 68%. The “fraction of individual crypts that died” value in series [1] is on record as “around 30%”. In addition, the “number of genes downregulated (microarray)” value in series [2] is 2,295. In addition, the “number of genes upregulated (microarray)” value in series [2] is 2,267. Also, the “effect on expression of sets of MYC-activated target genes in HUWE1-depleted cells” value in series [2] (genome-wide analysis, HUWE1-depleted Ls174T cells) was “no statistically significant effect”.
For the compound `NCc1cccc(CNc2ncnc3c(N4CCN(Cc5ccccc5)CC4)ncnc23)c1` [BI8626], the concentration for half-maximal inhibition (IC50) against UBE3A, against SMURF2, on ITCH, at HERC1 and at SMURF1 was greater than 50 µM each time. In addition, the “fraction of individual crypts that died” value in series [1] is listed as 60-80%. Further, in series [2], the “number of genes downregulated (microarray)” value is 2,923. The “number of genes upregulated (microarray)” value in series [2] is reported as 2,796.
